Reference: PMC10388327, “Dual Piperidine-Based Histamine H3 and Sigma-1 Receptor Ligands in the Treatment of Nociceptive and Neuropathic Pain” (Journal of Medicinal Chemistry, 2023)
Where a name gives a salt, the structure may show the parent alone. Read-outs that look alike come from different tables or passages of the source.

Key:
[1] = target: T1, human recombinant histamine H3R (Homo sapiens, UniProt Q9Y5N1); assay: hH3R radioligand binding ([3H]Nα-methylhistamine depletion assay); details: read-out: hH3R Ki [nM] x̄ [CI 95%]; mean [CI 95%]; HEK-293 cells
T1 construct: expressed in transfected cells
T1 sequence (Q9Y5N1 whole entry): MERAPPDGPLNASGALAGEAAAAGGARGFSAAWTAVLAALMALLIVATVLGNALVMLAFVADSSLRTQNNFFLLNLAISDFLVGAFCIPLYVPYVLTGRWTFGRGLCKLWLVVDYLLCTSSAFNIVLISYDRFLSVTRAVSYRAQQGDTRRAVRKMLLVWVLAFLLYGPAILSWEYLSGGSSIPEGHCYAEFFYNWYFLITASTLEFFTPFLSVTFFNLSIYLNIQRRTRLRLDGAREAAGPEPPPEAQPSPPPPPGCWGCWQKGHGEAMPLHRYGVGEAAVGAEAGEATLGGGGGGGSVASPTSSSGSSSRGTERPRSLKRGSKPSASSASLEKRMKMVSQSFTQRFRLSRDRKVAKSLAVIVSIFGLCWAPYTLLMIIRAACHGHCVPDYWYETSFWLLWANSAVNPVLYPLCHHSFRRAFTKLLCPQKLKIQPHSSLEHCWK

[2] = target: T2, human histamine H1 receptor (hH1R) (Homo sapiens, UniProt P35367); assay: hH1R radioligand binding ([3H]mepyramine); details: read-out: hH1R (Ki [nM] x̅ [CI 95%]); HEK293T cells; n = 3, triplicate
T2 construct: SP (signal peptide) (N); FLAG (N); expressed in transfected cells
T2 sequence (P35367 whole entry): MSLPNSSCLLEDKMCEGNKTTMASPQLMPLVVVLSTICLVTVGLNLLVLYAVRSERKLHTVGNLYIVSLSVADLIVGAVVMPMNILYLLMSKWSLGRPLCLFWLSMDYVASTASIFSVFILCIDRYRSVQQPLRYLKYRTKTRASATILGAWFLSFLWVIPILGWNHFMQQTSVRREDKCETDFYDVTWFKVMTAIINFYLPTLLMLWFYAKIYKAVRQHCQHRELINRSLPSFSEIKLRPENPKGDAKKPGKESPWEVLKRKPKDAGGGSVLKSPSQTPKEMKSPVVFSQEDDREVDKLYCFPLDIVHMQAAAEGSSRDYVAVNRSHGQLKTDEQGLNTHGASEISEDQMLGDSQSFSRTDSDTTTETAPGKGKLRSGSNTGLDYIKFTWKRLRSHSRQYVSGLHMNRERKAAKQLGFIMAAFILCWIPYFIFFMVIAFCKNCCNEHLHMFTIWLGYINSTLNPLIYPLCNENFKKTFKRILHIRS
Experimental: (§1) To check the selectivity profile of our lead structures, radioligand binding studies at other histamine receptor subtypes were carried out. […] Obtained results clearly indicate the high selectivity of the tested derivatives toward human H3R (Table 3).
(§2) Compounds (as oxalate salts) were tested in H3R in vitro binding studies using the methods described previously.[21]−[23] […] Radioligand binding experiments at the H1R, H2R, and H4R were performed as previously described in Rosier et al.[65] and Bartole et al.[66] […] Data represent mean values ± CI from three independent experiments, each performed in triplicate. The normalized competition binding curves were then fitted with a four-parameter logistic fit yielding IC50 values using the Prism 8.4.3 software (GraphPad, San Diego, CA). The Ki values were estimated from the Cheng–Prusoff equation.[69]

[3] = target: T3, human histamine H2 receptor (hH2R) (Homo sapiens, UniProt P25021); assay: hH2R radioligand binding ([3H]UR-DE257); details: HEK293T cells; n = 3, triplicate
T3 construct: SP (signal peptide) (N); FLAG (N); expressed in transfected cells
T3 sequence (P25021 whole entry): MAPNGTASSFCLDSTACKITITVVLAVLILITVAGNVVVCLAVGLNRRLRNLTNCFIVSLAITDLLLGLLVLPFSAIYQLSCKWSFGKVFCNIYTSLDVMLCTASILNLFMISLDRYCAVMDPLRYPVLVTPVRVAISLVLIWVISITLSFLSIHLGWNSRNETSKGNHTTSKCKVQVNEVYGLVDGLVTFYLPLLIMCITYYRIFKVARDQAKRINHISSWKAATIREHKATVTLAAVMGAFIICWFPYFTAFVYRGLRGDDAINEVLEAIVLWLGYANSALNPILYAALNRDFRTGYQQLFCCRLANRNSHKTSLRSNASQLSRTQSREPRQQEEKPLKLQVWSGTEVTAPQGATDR
Experimental: as §1, §2

mice [4] = assay: motor coordination in the rotarod test; assay type: in vivo; details: 15 mg/kg i.p.; 6, 18 and 24 rpm
Text: The neurotoxicity of the new compounds can result in impaired motor functions of the experimental animals, which may subsequently cause false interpretation of the results of in vivo tests. Understandably, neurotoxicity is also the frequent reason for eliminating the tested compound from further studies. To minimize that risk, we investigated the influence of our lead structures on motor coordination in the rotarod test, which is the classical test used for assessing motor coordination and balance in rodents. It provides a quick and simple estimation of neuromuscular coordination. […] The time spent on the rotarod apparatus was 60 s for each control mouse.
The test was carried out on the semiautomatic rotarod apparatus (Rotarod apparatus Panlab/Harvard Apparatus, LE 8200, Spain) according to the method previously described in the literature.[85] The mice were trained for 3 days on the rod rotating at a constant speed of 18 rotations per minute (rpm). During each training session, the animals were placed on the rod for 3 min with an unlimited number of trials. On the test day (24 h after the final training trial), 30 min before the rotarod test, the mice were pretreated (i.p.) with the test compound (15 mg/kg). Then, the animals were tested on the rotarod revolving at 6, 18, and then 24 rpm. Motor impairments, defined as the inability to remain on the rotating rod for 1 min, were measured at each speed.

mice [5] = assay: formalin test; assay type: in vivo; details: Mus musculus, ip
Text: The formalin test is one of the most useful screening models for testing potentially clinically relevant antinociceptive molecules because of its ease of administration, standardization, and validation with reference drugs.[50] The subcutaneous injection of formalin results in a focal injury that stimulates and then damages sensory endings. Two distinct phases of nociceptive response are associated with the immediate activation of nociceptors and sensitization of spinal reflex circuits during phase I and II responses, respectively.[51]
The procedure used was essentially the same as that described previously.[86],[87] Briefly, 20 μL of 1.5% formalin solution was injected intraplantarly (i.pl.) into the mice right hind paw using a 26-gauge needle. […] The total time (in seconds) spent on licking the injected paw during periods of 0–5 min (early phase, neurogenic) and 15–30 min (late phase, inflammatory) was measured and was considered as an indicator of nociceptive behavior. Before formalin injection, different groups of mice were treated i.p. with the vehicle (10 mL/kg, negative control) and the varying doses of 12 (5, 10, 15, and 30 mg/kg).

CCI-exposed mice = assay: chronic constriction injury (CCI) of the sciatic nerve, von Frey test; assay type: in vivo, male albino Swiss CD-1 mice
Experimental: Behavioral assessment of 12 was performed 14 days after the sciatic nerve injury. Mice were randomly assigned to four treatment groups: vehicle-treated (i.p.) and 12-treated (5, 10, and 15 mg/kg, i.p.). Baseline measurements (basal) for all tests were performed before compound injections, and the results are presented as percentages of the maximal possible effect (% MPE). We observed a significant effect of the tested compound in the von Frey test at all tested time points (30 min: F(3, 26) = 12.38, p < 0,0001; 90 min: F(3, 26) = 12.65, p < 0.0001; 180 min: F(3, 26) = 6.464, p = 0.0020). […] We also observed a significant effect of treatment on the contralateral paw 90 min after injection (F(3, 26) = 5.741, p = 0.0037).
The model of chronic constriction injury (CCI) to the sciatic nerve was established according to Bennett and Xie.[94] The surgical method was performed under isoflurate anesthesia (2% isoflurane in 100% oxygen with a flow of 1.5 L/min).[95] Below the right hipbone, a small incision was performed, and three ligatures (4/0 silk) around the sciatic nerve were made (with 1 mm spacing) until a brief twitch in the respective hind limb was observed. All mice that underwent the CCI procedure developed hypersensitivity to mechanical and thermal stimuli. Behavioral tests were performed at day 14 after injury. Compound 12 was dissolved in 10% DMSO/10% (2-hydroxypropyl)-β-cyclodextrin/water and administered i.p. at doses 5, 10, and 15 mg/kg (injection volume 10 mL/kg of body weight). The control group received the vehicle (10% DMSO/10% (2-hydroxypropyl)-β-cyclodextrin/water).
Behavioral experiments were performed between 8:00 a.m. and 2:00 p.m. Across the experiments, we compared vehicle-treated mice with 12-treated animals. Experiments were performed 30, 90, and 180 min (von Frey test); 35, 95, and 185 min (cold plate test); and 40, 100, and 190 min (tail flick test) after the vehicle or 12 administration.
The von Frey test was used to measure mechanical hypersensitivity as described in a previous publication.[95] The animals were placed in cages with a wire net floor. The reaction (paw withdrawal, shaking, or licking) of the ipsilateral (Figure 15) and contralateral (Figure S33) paw of CCI-exposed mice to the mechanical stimulator (calibrated nylon monofilaments (0.6–6 g; Stoelting)) in serial increments was observed.

[6] = serum metabolic stability

SMILES: N#Cc1ccc(-c2ccc(OCCCN3CCC(c4ccncc4)CC3)cc2)cc1 [Compound 12, 4′-(3-(4-(Pyridin-4-yl)piperidin-1-yl)propoxy)-[1,1′-biphenyl]-4-carbonitrile Oxalate]
- Ki [1]: 7.7 nM
- Ki [2]: 653 nM
- Ki [3]: > 10000 nM
- influence on motor coordination, time on rotarod (mice [4]): slightly affected motor coordination, but the effect was not statistically significant
- ED50 (mice [5]; 0–5 min after formalin, read-out: ED50, formalin test phase I (acute phase)): 6.17 mg/kg
- ED50 (mice [5]; 15–30 min after formalin, read-out: ED50, formalin test phase II (late phase)): 12.3 mg/kg
- effect on contralateral paw, von Frey test (CCI-exposed mice; 15 mg/kg, 30 and 180 min): reduced the withdrawal threshold 30 and 180 min after injection, although this effect was not statistically significant
- effect on contralateral paw, von Frey test (CCI-exposed mice; 15 mg/kg, 90 min): significant effect (p = 0.0056)
- effect on contralateral paw, von Frey test (CCI-exposed mice; 5 and 10 mg/kg, all time points): no effects of compound 12 (for doses 5 and 10 mg/kg) on tactile allodynia
- analgesic effect, von Frey test, ipsilateral paw (CCI-exposed mice; 90 and 180 min after i.p. injection): only at a dose of 10 mg/kg increased the withdrawal thresholds
- analgesic effect, von Frey test, ipsilateral paw (CCI-exposed mice; 30 min after i.p. injection, 5, 10, 15 mg/kg, day 14 after CCI): significant analgesic effects 30 min after injection of 5 (p < 0.0001) and 10 mg/kg (p = 0.0201)
- serum stability assessment [6]: moderately stable ligand
- half-life at 24 h ([6]; serum (made from plasma by clotting with calcium chloride)): 7.7 ± 1.4 h
